Test results from patent publication US7034044B2, “Conjugated aromatic compounds with a pyridine substituent” (Hoffmann-La Roche Inc., priority 2001, dated 2006).
Structures can show the parent of a compound that is named as a salt.

How the values were obtained:
NMDA-receptor subtype 2B = target: T1, NMDA-receptor subtype 2B (Rattus norvegicus, UniProt P35439+Q00960); assay: 3H-Ro 25-6981 binding (displacement); settings: displacement of 5 nM 3H-Ro 25-6981 from rat brain membranes (whole brain minus cerebellum and medulla oblongata), 2 hours at 4° C., Tris-HCl 50 mM pH 7.4
T1 construct: Membranes were prepared by homogenization of the whole brain minus cerebellum and medulla oblongata; from tissue; host or cells: rat whole brain minus cerebellum and medulla oblongata (membranes)
T1 sequence (Q00960 27-1482, other chains not shown): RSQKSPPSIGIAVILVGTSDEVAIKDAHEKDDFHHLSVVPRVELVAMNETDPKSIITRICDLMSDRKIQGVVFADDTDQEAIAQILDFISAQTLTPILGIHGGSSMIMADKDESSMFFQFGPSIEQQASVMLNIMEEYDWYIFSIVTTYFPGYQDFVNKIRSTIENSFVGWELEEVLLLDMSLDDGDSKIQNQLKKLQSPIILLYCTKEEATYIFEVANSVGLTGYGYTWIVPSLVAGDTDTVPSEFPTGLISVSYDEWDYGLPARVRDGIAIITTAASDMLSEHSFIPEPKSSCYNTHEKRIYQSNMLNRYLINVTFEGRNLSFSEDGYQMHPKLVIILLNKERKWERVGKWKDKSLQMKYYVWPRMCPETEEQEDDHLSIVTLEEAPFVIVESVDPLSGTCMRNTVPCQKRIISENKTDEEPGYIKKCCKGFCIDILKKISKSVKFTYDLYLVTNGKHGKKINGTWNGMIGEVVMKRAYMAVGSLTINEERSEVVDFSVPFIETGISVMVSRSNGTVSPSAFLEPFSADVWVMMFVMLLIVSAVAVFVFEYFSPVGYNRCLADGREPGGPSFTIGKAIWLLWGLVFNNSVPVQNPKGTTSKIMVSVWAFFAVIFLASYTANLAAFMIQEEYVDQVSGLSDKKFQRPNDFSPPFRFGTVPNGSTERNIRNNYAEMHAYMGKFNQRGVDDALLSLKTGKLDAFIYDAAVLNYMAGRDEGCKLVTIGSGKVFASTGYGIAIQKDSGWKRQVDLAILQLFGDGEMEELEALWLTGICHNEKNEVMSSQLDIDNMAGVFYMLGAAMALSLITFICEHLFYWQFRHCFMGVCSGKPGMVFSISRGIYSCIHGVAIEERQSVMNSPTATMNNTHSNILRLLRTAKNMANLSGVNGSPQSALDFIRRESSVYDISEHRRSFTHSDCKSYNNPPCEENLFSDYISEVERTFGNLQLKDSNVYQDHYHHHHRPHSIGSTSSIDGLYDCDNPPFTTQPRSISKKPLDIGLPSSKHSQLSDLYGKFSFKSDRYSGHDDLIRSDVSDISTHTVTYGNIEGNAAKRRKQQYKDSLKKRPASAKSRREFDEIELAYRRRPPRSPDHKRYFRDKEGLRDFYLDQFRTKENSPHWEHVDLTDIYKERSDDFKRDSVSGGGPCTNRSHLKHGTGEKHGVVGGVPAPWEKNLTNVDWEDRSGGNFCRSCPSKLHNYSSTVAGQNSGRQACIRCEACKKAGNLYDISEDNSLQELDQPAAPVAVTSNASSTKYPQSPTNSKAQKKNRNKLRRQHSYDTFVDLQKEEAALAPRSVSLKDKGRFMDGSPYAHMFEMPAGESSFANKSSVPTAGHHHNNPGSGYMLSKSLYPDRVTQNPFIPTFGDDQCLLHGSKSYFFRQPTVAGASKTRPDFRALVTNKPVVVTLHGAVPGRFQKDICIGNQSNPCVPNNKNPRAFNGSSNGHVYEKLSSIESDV
Protocol: ^3H-Ro 25-6981 binding (Ro 25-6981 is [R—(R*,S*)]-α-(4-Hydroxy-phenyl)-β-methyl-4-(phenyl-methyl)-1-piperidine propanol)
Male Füllinsdorf albino rats weighing between 150–200 g were used. Membranes were prepared by homogenization of the whole brain minus cerebellum and medulla oblongata with a Polytron (10.000 rpm, 30 seconds), in 25 volumes of a cold Tris-HCl 50 mM, EDTA 10 mM, pH 7.1 buffer. The homogenate was centrifuged at 48,000 g for 10 minutes at 4° C. The pellet was resuspended using the Polytron in the same volume of buffer and the homogenate was incubated at 37° C. for 10 minutes. After centrifugation the pellet was homogenized in the same buffer and frozen at −80° C. for at least 16 hours but not more than 10 days. For the binding assay the homogenate was thawed at 37° C., centrifuged and the pellet was washed three times as above in a Tris-HCl 5 mM, pH 7.4 cold buffer. The final pellet was resuspended in the same buffer and used at a final concentration of […].
^3H-Ro 25-6981 binding experiments were performed using a Tris-HCl 50 mM, pH 7.4 buffer. For displacement experiments 5 nM of ^3H-Ro 25-6981 were used and non specific binding was measured using 10 mM of tetrahydroisoquinoline and usually it accounts for 10% of the total. The incubation time was 2 hours at 4° C. and the assay was stopped by filtration on Whatmann GF/B glass fiber filters (Unifilter-96, Packard, Zürich, Switzerland). The filters were washed 5 times with cold buffer. The radioactivity on the filter was counted on a Packard Top-count microplate scintillation counter after addition of […] of microscint 40 (Canberra Packard S. A., Zürich, Switzerland).
The above procedure was performed to determine data for calculation of an IC50 value. The IC50 value is a concentration expressed in micromoles (μM) for a test compound at which 50% of the ligand (in this determination, ^3H-Ro 25-6981) bonded to the receptor is displaced. The binding ability of the compounds of the invention was measured in vitro using a minimum of 10 concentrations and repeated at least once. The specific binding at each concentration was then calculated as the % of the maximum specific binding (100%) obtained in the same experiment, in the absence of a test compound. Competitive displacement of ^3H-Ro 25-6981 was observed, with complete displacement of the radioligand from specific binding sites (usually about 0% of specific binding at the highest concentrations tested). An IC50 value was then calculated with all the ten datapoints (% of specific bound) by plotting the data on a semilogarithmic scale with a sigmoidal fit (Log of the molar concentration on X-axis vs. % of specific bound on the Y-axis) using Microsoft Excel fit software or Microcal Origin software. The pooled normalized values were analyzed using a non-linear regression calculation program which provide IC50 with their relative upper and lower 95% confidence limits.

Cl.Nc1cccc(C=Cc2cccc(Cl)c2)n1
melting point: 248 to 249 °C

Cc1cc(N)nc(/C=C/c2ccccc2)c1.Cl [Example 14, trans-4-Methyl-6-styryl-pyridin-2-yl-amine hydrochloride]
IC50 (NMDA-receptor subtype 2B): 10 nM
melting point: > 250 °C

Nc1cccc(C=Cc2ccc(O)cc2)n1 [Example 11, 4-[2-(6-Amino-pyridin-2-yl)-vinyl]-phenol]
melting point: 224 to 225 °C

Cc1cnc(C2=Cc3ccccc3CC2)cc1N.O=C(O)/C=C/C(=O)O [Example 24, 2-(3,4-Dihydro-naphthalen-2-yl)-5-methyl-pyridin-4-yl-amine fumarate]
IC50 (NMDA-receptor subtype 2B): 11 nM
melting point: > 200 °C (dec.)

Cc1cnc(C2=Cc3cc(Cl)ccc3CC2)cc1N.O=C(O)/C=C/C(=O)O
melting point: > 250 °C

Cl.Nc1cccc(C=Cc2ccc(F)cc2)n1
melting point: > 250 °C

Cc1cc(C)c2c(c1)C=C(c1cc(N)ccn1)CC2.O=C(O)/C=C/C(=O)O [Example 34, 2-(5,7-Dimethyl-3,4-dihydro-naphthalen-2-yl)-pyridin-4-yl-amine fumarate]
IC50 (NMDA-receptor subtype 2B): 57 nM
melting point: 231 to 232 °C

Cc1cnc(C2=Cc3ccccc3C(C)C2)cc1N.O=C(O)/C=C/C(=O)O (racemic)
melting point: 210 to 211 °C

Cc1ccc(C)c2c1C=C(c1cc(N)ccn1)CC2.O=C(O)/C=C/C(=O)O
melting point: 232 to 233 °C

Nc1ccc(/C=C/c2ccccc2)nc1 [Example 15, trans-6-Styryl-pyridin-3-yl-amine]
melting point: 159 to 160 °C

Cl.Nc1cccc(C=Cc2ccc(Cl)cc2)n1
melting point: > 250 °C

Cl.Nc1cccc(C=Cc2ccc(Cl)c(Cl)c2)n1
melting point: > 250 °C

Cl.NCc1cccc(/C=C/c2ccccc2)n1 [Example 18, trans-C-(6-Styryl-pyridin-2-yl)-methylamine hydrochloride]
IC50 (NMDA-receptor subtype 2B): 80 nM
melting point: 170 °C (dec.)

Cc1cnc(C2=Cc3ccsc3CC2)cc1N.O=C(O)/C=C/C(=O)O
melting point: 218 to 219 °C

Nc1ccnc(C2=Cc3ccsc3CC2)c1.O=C(O)/C=C/C(=O)O
melting point: 199 to 200 °C

Nc1ccnc(/C=C/c2ccccc2)c1 [Example 16, trans-2-Styryl-pyridin-4-yl-amine]
IC50 (NMDA-receptor subtype 2B): 40 nM
melting point: 164 to 165 °C

COc1ccc(C=Cc2cccc(N)n2)cc1.Cl
melting point: 224 to 226 °C

Cc1cc(/C=C/c2ccccc2)cc(N)n1 [Example 13, trans-6-Methyl-4-styryl-pyridin-2-yl-amine]
IC50 (NMDA-receptor subtype 2B): 30 nM
melting point: 149 to 150 °C

Cl.Nc1ccnc(C2=Cc3ccccc3CC2)c1 [Example 19, 2-(3,4-Dihydro-naphthalen-2-yl)-pyridin-4-yl-amine hydrochloride]
IC50 (NMDA-receptor subtype 2B): 18 nM
melting point: 231 to 232 °C

CNc1cccc(/C=C/c2ccccc2)n1.Cl
melting point: 157 to 158 °C

Nc1cccc(C2=Cc3ccccc3CC2)n1.O=C(O)/C=C/C(=O)O
melting point: 153 to 154 °C

Cc1cc(N)cc(C2=Cc3ccccc3CC2)n1.O=C(O)/C=C/C(=O)O [Example 22, 2-(3,4-Dihydro-naphthalen-2-yl)-6-methyl-pyridin-4-yl-amine fumarate]
IC50 (NMDA-receptor subtype 2B): 32 nM
melting point: 202 to 203 °C

Cc1cc(N)cc(C2=Cc3cc(Cl)ccc3CC2)n1.O=C(O)/C=C/C(=O)O [Example 37, 2-(7-Chloro-3,4-dihydro-naphthalen-2-yl)-6-methyl-pyridin-4-yl-amine fumarate]
IC50 (NMDA-receptor subtype 2B): 82 nM
melting point: 232 to 233 °C

Nc1cc(CO)nc(C2=Cc3ccccc3CC2)c1.O=C(O)/C=C/C(=O)O
melting point: 113 °C (dec.)

CC1CC(c2cc(N)ccn2)=Cc2ccccc21.O=C(O)/C=C/C(=O)O (racemic)
melting point: 176 to 177 °C

Cc1c(N)ccnc1C1=Cc2ccccc2CC1 [Example 25, 2-(3,4-Dihydro-naphthalen-2-yl)-3-methyl-pyridin-4-yl-amine]
melting point: 87 to 88 °C

Cc1ccc(C=Cc2cccc(N)n2)cc1.Cl
melting point: > 250 °C

Cl.NCc1cccc(C2=Cc3ccccc3CC2)n1 [Example 28, C-[6-(3,4-Dihydro-naphthalen-2-yl)-pyridin-2-yl]-methylamine hydrochloride]
IC50 (NMDA-receptor subtype 2B): 38 nM
melting point: 203 to 204 °C

CNc1ccnc(C2=Cc3ccccc3CC2)c1.O=C(O)/C=C/C(=O)O [Example 27, [2-(3,4-Dihydro-naphthalen-2-yl)-pyridin-4-yl]-methyl-amine fumarate]
IC50 (NMDA-receptor subtype 2B): 52 nM
melting point: 106 to 107 °C

Cl.Nc1cccc(C=Cc2cccc(C(F)(F)F)c2)n1
melting point: 222 to 223 °C

Cc1cc(N)cc(C2=Cc3ccccc3C(C)C2)n1.O=C(O)/C=C/C(=O)O (racemic)
melting point: 183 to 185 °C (dec.)

Cl.Nc1cccc(C=Cc2ccccc2F)n1
melting point: > 250 °C

Cl.Nc1cccc(C=Cc2cccc(F)c2)n1
melting point: > 250 °C

COc1ccc2c(c1)C=C(c1cc(N)ccn1)CC2.O=C(O)/C=C/C(=O)O
melting point: 193 to 194 °C

COc1cccc2c1CCC(c1cc(N)ccn1)=C2.O=C(O)/C=C/C(=O)O
melting point: 207 to 208 °C

Cc1cc(N)nc(C2=Cc3ccccc3CC2)c1.O=C(O)/C=C/C(=O)O
melting point: 142 to 143 °C

CCc1cc(N)cc(C2=Cc3cc(Cl)ccc3CC2)n1.O=C(O)/C=C/C(=O)O [Example 36, 2-(7-Chloro-3,4-dihydro-naphthalen-2-yl)-6-ethyl-pyridin-4-yl-amine fumarate]
IC50 (NMDA-receptor subtype 2B): 23 nM
melting point: 232 to 233 °C

CCc1cc(N)cc(C2=Cc3ccccc3CC2)n1.O=C(O)/C=C/C(=O)O [Example 26, 2-(3,4-Dihydro-naphthalen-2-yl)-6-ethyl-pyridin-4-yl-amine fumarate]
IC50 (NMDA-receptor subtype 2B): 38 nM
melting point: > 230 °C (dec.)

Nc1ccnc(C2=Cc3cc(Cl)ccc3CC2)c1 [Example 30, 2-(7-Chloro-3,4-dihydro-naphthalen-2-yl)-pyridin-4-ylamine fumarate]
IC50 (NMDA-receptor subtype 2B): 20 nM
